Like-named read-outs stand apart in the source and are kept apart here.
Experiments:
A. thaliana DHDPS = system: T1, A. thaliana DHDPS; experiment: DHDPS-DHDPR coupled assay, dose response inhibitor assay; format: biochemical, Arabidopsis thaliana
T1 construct: AtDHDPS|10|0.00008; no borders, domain or tags given
Experimental: DHDPS enzyme activity was determined using the coupled assay in a Cary 4000 UV/Vis spectrophotometer at 340 nm in 1 cm acrylic cuvettes. A master mix was prepared for each reaction as per Table 1. Reaction mixtures containing enzymes, pyruvate, buffer and NADPH were incubated at 30° C. for 12 mins before the addition of ASA to initiate the reaction. The oxidation of NADPH to NADP^+ was then monitored at 340 nm at 30° C. as a function of time. The initial rate (ΔA340·min^−1) was calculated from the slope of the linear portion of the A340 versus time profile. All experiments were carried out in triplicate. The enzyme kinetic parameters, including KM values, were determined using the Michaelis-Menten equation (Equation 1). Unless otherwise stated, all kinetic data were fitted using the built-in equations in GraphPad Prism.
To determine/C50 values for the inhibitors, A. thaliana DHDPS enzyme activity was measured using the coupled assay (detailed above) in the presence of increasing concentrations of inhibitor. The initial rate was then plotted as a function of the log 10 of the inhibitor concentration and the/C50 determined according to Equation 2.

[1] = system: Enterococcus faecium 12204; experiment: Broth microdilution MIC; format: cell-based
Experimental: (§1) Assays were carried out by a broth microdilution method using a 96-well plate according to guidelines defined by the European Committee on Antimicrobial Susceptibility Testing as described here. Overnight cultures of strains were grown in tryptic soy broth (TSB) at 37° C. The overnight cultures were diluted to a concentration of 1×10^6 bacteria/ml (OD600=0.01) in TSB media. To each well on 96 well plates, 100 μl of bacterially infected media at a concentration of 1×10^6/ml and compounds at various concentrations were added. An uninfected control (i.e. no bacteria) was also included. The plates were incubated at 37° C. wrapped in parafilm for 20 hrs. The growth was assessed by measuring the absorbance at 600 nm. The minimum inhibitory concentration (MIC) was determined to be the lowest concentration of compound that inhibits visible bacterial growth.

[2] = system: Enterococcus faecalis 12201; experiment: Broth microdilution MIC; format: cell-based
Experimental: as §1

EMRSA-15 = experiment: Broth microdilution MIC; format: cell-based
Experimental: as §1

[3] = system: Acinetobacter baumannii AYE; experiment: Broth microdilution MIC; format: cell-based
Experimental: as §1

[4] = system: Klebsiella pneumoniae 13368; experiment: Broth microdilution MIC; format: cell-based
Experimental: as §1

[5] = system: Enterococcus faecalis 775; experiment: Broth microdilution MIC; format: cell-based
Experimental: as §1

[6] = system: Escherichia coli NCTC12923; experiment: Broth microdilution MIC; format: cell-based
Experimental: as §1

EMRSA-16 = experiment: Broth microdilution MIC; format: cell-based
Experimental: as §1

[7] = system: Pseudomonas aeruginosa PA01; experiment: Broth microdilution MIC; format: cell-based
Experimental: as §1

[8] = system: Acinetobacter baumannii 17978; experiment: Broth microdilution MIC; format: cell-based
Experimental: as §1

[9] = system: Pseudomonas aeruginosa 13437; experiment: Broth microdilution MIC; format: cell-based
Experimental: as §1

MSSA 9144 = experiment: Broth microdilution MIC; format: cell-based; details: Staphylococcus aureus
Experimental: as §1

Klebsiella pneumoniae M6 = experiment: Broth microdilution MIC; format: cell-based
Experimental: as §1

[10] = system: Gram-positive and Gram-negative bacterial species; experiment: Broth microdilution MIC, panel summary; format: cell-based; details: read-out: MIC values
Experimental: as §1

[11] = system: human liver cells (HepG2); experiment: MTT viability assay; details: for % viability 1 / % viability 2 / % viability 3: 48 hrs
Experimental: (§2) Cells were harvested and resuspended in growth media (5-10 ml) to count. Cells were diluted to the appropriate concentration (5×10^3), and seeded into 96-well plates as follows: (a) 50 μl of cells per well, (b) 100 μl of growth media in the Blank wells, (c) 100 μl PBS in outer wells (to prevent dehydration of media from the cells). Cells were incubated overnight at 37° C. (5% CO2).
(§3) Compounds were prepared as serial dilutions in growth media. Each treatment concentration was performed in triplicate. 50 μl/well of prepared compound was added to cells.
(§4) A no treatment triplicate (100% viability) was also included by adding 50 μl of growth media to cells. Plates were returned to the incubator for 48 hrs.
(§5) MTT powder in 1×PBS was prepared at 5 mg/ml and filter sterilised. MTT was added to serum-free media to a final concentration of 1 mg/ml. 100 μl of the MTT solution (1 mg/ml) was added to each well, including 0 μM and blank wells. Plates were incubated at 37° C. in incubator for 3 hrs. Following incubation, the media was removed from wells without disrupting the purple crystals formed. 100 μl of DMSO was added to each well using a multichannel pipette. The plates were shaken on the plate shaker until all the crystals have dissolved. The absorbance was measured at 570 nm using a plate reader. The data was analysed using Microsoft Excel. For each treatment concentration the average was calculated, the blank was subtracted and the cell viability was determined as a percentage of the no treatment control (DMSO vehicle control).

[12] = system: human kidney cells (HEK293); experiment: MTT viability assay; details: for % Viability Remaining 1 / % Viability Remaining 2 / % Viability Remaining 3: 48 hrs
Experimental: as §2, §3, §4, §5

O=C(O)CN1C(=O)S/C(=C\c2ccc(F)cc2)C1=O [Compound 1, (Z)-2-(5-(4-Fluorobenzylidene)-2,4-dioxothiazolidin-3-yl)acetic Acid]
IC50 (A. thaliana DHDPS): 92.4 µM | MIC ([1]; Enterococcus faecium 12204, replicate 1, read-out: MIC #1): > 64 µg/mL | MIC ([1]; Enterococcus faecium 12204, replicate 2, read-out: MIC #2): > 64 µg/mL | MIC ([1]; Enterococcus faecium 12204, replicate 3, read-out: MIC #3): > 64 µg/mL | MIC ([2]; Enterococcus faecalis 12201, replicate 1, read-out: MIC #1): > 64 µg/mL | MIC ([2]; Enterococcus faecalis 12201, replicate 2, read-out: MIC #2): > 64 µg/mL | MIC ([2]; Enterococcus faecalis 12201, replicate 3, read-out: MIC #3): > 64 µg/mL | MIC (EMRSA-15; EMRSA-15, replicate 1, read-out: MIC #1): > 64 µg/mL | MIC (EMRSA-15; EMRSA-15, replicate 2, read-out: MIC #2): > 64 µg/mL | MIC (EMRSA-15; EMRSA-15, replicate 3, read-out: MIC #3): > 64 µg/mL | MIC ([3]; replicate 1, read-out: MIC #1): > 64 µg/mL | MIC ([3]; replicate 2, read-out: MIC #2): > 64 µg/mL | MIC ([3]; replicate 3, read-out: MIC #3): > 64 µg/mL | MIC ([4]; Klebsiella pneumoniae 13368, replicate 1, read-out: MIC #1): > 64 µg/mL | MIC ([4]; Klebsiella pneumoniae 13368, replicate 2, read-out: MIC #2): > 64 µg/mL | MIC ([4]; Klebsiella pneumoniae 13368, replicate 3, read-out: MIC #3): > 64 µg/mL | MIC ([5]; Enterococcus faecalis 775, replicate 1, read-out: MIC #1): > 64 µg/mL | MIC ([5]; Enterococcus faecalis 775, replicate 2, read-out: MIC #2): > 64 µg/mL | MIC ([5]; Enterococcus faecalis 775, replicate 3, read-out: MIC #3): > 64 µg/mL | MIC ([6]; Escherichia coli NCTC12923, replicate 1, read-out: MIC #1): > 64 µg/mL | MIC ([6]; Escherichia coli NCTC12923, replicate 2, read-out: MIC #2): > 64 µg/mL | MIC ([6]; Escherichia coli NCTC12923, replicate 3, read-out: MIC #3): > 64 µg/mL | MIC (EMRSA-16; EMRSA-16, replicate 1, read-out: MIC #1): > 64 µg/mL | MIC (EMRSA-16; EMRSA-16, replicate 2, read-out: MIC #2): > 64 µg/mL | MIC (EMRSA-16; EMRSA-16, replicate 3, read-out: MIC #3): > 64 µg/mL | MIC ([7]; Pseudomonas aeruginosa PA01, replicate 1, read-out: MIC #1): > 64 µg/mL | MIC ([7]; Pseudomonas aeruginosa PA01, replicate 2, read-out: MIC #2): > 64 µg/mL | MIC ([7]; Pseudomonas aeruginosa PA01, replicate 3, read-out: MIC #3): > 64 µg/mL | MIC ([8]; Acinetobacter baumannii 17978, replicate 1, read-out: MIC #1): > 64 µg/mL | MIC ([8]; Acinetobacter baumannii 17978, replicate 2, read-out: MIC #2): > 64 µg/mL | MIC ([8]; Acinetobacter baumannii 17978, replicate 3, read-out: MIC #3): > 64 µg/mL | MIC ([9]; Pseudomonas aeruginosa 13437, replicate 1, read-out: MIC #1): > 64 µg/mL | MIC ([9]; Pseudomonas aeruginosa 13437, replicate 2, read-out: MIC #2): > 64 µg/mL | MIC ([9]; Pseudomonas aeruginosa 13437, replicate 3, read-out: MIC #3): > 64 µg/mL | MIC (MSSA 9144; MSSA 9144, replicate 1, read-out: MIC #1): > 64 µg/mL | MIC (MSSA 9144; MSSA 9144, replicate 2, read-out: MIC #2): > 64 µg/mL | MIC (MSSA 9144; MSSA 9144, replicate 3, read-out: MIC #3): > 64 µg/mL | MIC (Klebsiella pneumoniae M6; Klebsiella pneumoniae M6, replicate 1, read-out: MIC #1): > 64 µg/mL | MIC (Klebsiella pneumoniae M6; Klebsiella pneumoniae M6, replicate 2, read-out: MIC #2): > 64 µg/mL | MIC (Klebsiella pneumoniae M6; Klebsiella pneumoniae M6, replicate 3, read-out: MIC #3): > 64 µg/mL | MIC [10]: > 64 µg/mL

COc1ccc(/C=C2\NC(=O)N(CC(=O)O)C2=O)cc1 [Compound 42, (Z)-2-(4-(4-Methoxybenzylidene)-2,5-dioxoimidazolidin-1-yl)acetic Acid]
% viability 1 ([11]; HepG2, 12.5 μM): 81.0% | % viability 2 ([11]; HepG2, 12.5 μM): 99.1% | % viability 3 ([11]; HepG2, 12.5 μM): 70.9% | % viability 1 ([11]; HepG2, 25 μM): 81.0% | % viability 2 ([11]; HepG2, 25 μM): 99.1% | % viability 3 ([11]; HepG2, 25 μM): 70.9% | % viability 1 ([11]; HepG2, 50 μM): 88.8% | % viability 2 ([11]; HepG2, 50 μM): 98.3% | % viability 3 ([11]; HepG2, 50 μM): 90.4% | % viability 1 ([11]; HepG2, 100 μM): 88.0% | % viability 2 ([11]; HepG2, 100 μM): 86.0% | % viability 3 ([11]; HepG2, 100 μM): 84.1% | % viability 1 ([11]; HepG2, 200 μM): 98.4% | % viability 2 ([11]; HepG2, 200 μM): 101% | % viability 3 ([11]; HepG2, 200 μM): 82.4% | % viability 1 ([11]; HepG2, 400 μM): 80.9% | % viability 2 ([11]; HepG2, 400 μM): 82.9% | % viability 3 ([11]; HepG2, 400 μM): 82.1% | toxicity to HepG2 cells (in words) ([11]; HepG2, MTT, up to 400 μM (Defensin 100 μM)): effectively nontoxic | % Viability Remaining 1 ([12]; HEK293, 12.5 μM): 104% | % Viability Remaining 2 ([12]; HEK293, 12.5 μM): 93.9% | % Viability Remaining 3 ([12]; HEK293, 12.5 μM): 87.6% | % Viability Remaining 1 ([12]; HEK293, 25 μM): 110% | % Viability Remaining 2 ([12]; HEK293, 25 μM): 93.9% | % Viability Remaining 3 ([12]; HEK293, 25 μM): 87.6% | % Viability Remaining 1 ([12]; HEK293, 50 μM): 80.6% | % Viability Remaining 2 ([12]; HEK293, 50 μM): 94.5% | % Viability Remaining 3 ([12]; HEK293, 50 μM): 98.9% | % Viability Remaining 1 ([12]; HEK293, 100 μM): 110% | % Viability Remaining 2 ([12]; HEK293, 100 μM): 107% | % Viability Remaining 3 ([12]; HEK293, 100 μM): 115% | % Viability Remaining 1 ([12]; HEK293, 200 μM): 94.0% | % Viability Remaining 2 ([12]; HEK293, 200 μM): 99.6% | % Viability Remaining 3 ([12]; HEK293, 200 μM): 94.1% | % Viability Remaining 1 ([12]; HEK293, 400 μM): 105% | % Viability Remaining 2 ([12]; HEK293, 400 μM): 103% | % Viability Remaining 3 ([12]; HEK293, 400 μM): 80.9% | toxicity to HEK293 cells (in words) ([12]; HEK293, MTT, up to 400 μM (Defensin 100 μM)): effectively nontoxic | IC50 (A. thaliana DHDPS): 66.1 µM

Nc1ccc(/C=C2\SC(=O)N(CC(=O)O)C2=O)cc1 [Compound 11, (Z)-2-(5-(4-Aminobenzylidene)-2,4-dioxothiazolidin-3-yl)acetic Acid]
IC50 (A. thaliana DHDPS): 153 µM

Cc1ccc(/C=C2\SC(=O)N(CC(=O)O)C2=O)cc1 [Compound 10, (Z)-2-(5-(4-Methylbenzylidene)-2,4-dioxothiazolidin-3-yl)acetic Acid]
IC50 (A. thaliana DHDPS): 80.1 µM

COc1ccc(/C=C2\SC(=O)N(CC(=O)O)C2=O)c(OC)c1 [Compound 17, (Z)-2-(5-(2,4-Dimethoxybenzylidene)-2,4-dioxothiazolidin-3-yl)acetic Acid]
IC50 (A. thaliana DHDPS): 173 µM

COc1ccc(/C=C2\NC(=S)N(CC(=O)O)C2=O)cc1 [Compound 44, (Z)-2-(4-(4-Methoxybenzylidene)-5-oxo-2-thioxoimidazolidin-1-yl)acetic Acid]
IC50 (A. thaliana DHDPS): 222 µM

— patent US20200068890A1 (Person to Whom the Inventor is Obligated to Assign, priority 2017, published 2020)
